Earlier results as cited in article PMC12385607 (ACS medicinal chemistry letters, 2025).

Experiments:
[1] = orally available 2-PMPA prodrugs
[2] = 30 min post-oral administration

| SMILES | Brain distribution of 2-PMPA (in words) [1] | Clearance from plasma after intravenous administration (in words) | Plasma concentration of 2-PMPA after oral administration of 2-PMPA itself [2] |
| --- | --- | --- | --- |
| Cc1oc(=O)oc1COC(=O)CCC(CP(=O)(OCc1oc(=O)oc1C)OCc1oc(=O)oc1C)C(=O)OCc1oc(=O)oc1C (stereo not drawn) [tetra-ODOL-2-PMPA] | limited brain distribution |  |  |
| O=C(O)CCC(CP(=O)(O)O)C(=O)O (stereo not drawn) [2-PMPA, 2-(phosphonomethyl)pentanedioic acid] |  | quickly cleared from the plasma | ~ 250 nM |
